PubChem BioAssay (NCI)
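Five concentrations, 48 hours, 96-well plates. TGI: concentration producing complete growth inhibition.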 Where a SMILES comes first, the peptide text is derived from it. [ ]: non-standard residue; d: D form. The star is where a group is joined. ξ: configuration not given here. NMeF = CN[CH](Cc1ccccc1)C(=O)O; ξNMe2Val = CC(C)C(C(=O)*)N(C)C; NMeV = CN[CH](C(=O)O)C(C)C; ξNMeV = CNC(C(=O)O)C(C)C; Boc = CC(C)(C)OC(=O)*; OBn = c1ccc(CO*)cc1; OtBu = CC(C)(C)O*

How the values were obtained:
Experiment in all cases: growth of human tumour cells (NCI), 48 h
[1] = system: U251 CNS
[2] = system: NCI-H23 lung
[3] = system: NCI-H522 lung
[4] = system: SK-MEL-5 melanoma
[5] = system: MALME-3M melanoma
[6] = system: HOP-92 NSCLC
[7] = system: SW-620 colon
[8] = system: K-562 leukemia
[9] = system: CCRF-CEM leukemia
[10] = system: MDA-MB-231 breast

Compound | TGI [1] [µM] | TGI [2] [µM] | TGI [3] [µM] | TGI [4] [µM] | TGI [5] [µM] | TGI [6] [µM] | TGI [7] [µM] | TGI [8] [µM] | TGI [9] [µM] | TGI [10] [µM]
CC(C)C(C(=O)N(C)[C@H](C(=O)N1CCC[C@H]1C(=O)N(C)[C@@H](Cc1ccccc1)C(=O)OCc1ccccc1)C(C)C)N(C)C(=O)[C@@H](NC(=O)OC(C)(C)C)C(C)C (stereo not given in full) (Boc-V[ξNMeV][NMeV]P[NMeF]-OBn) | > 31.6 | > 100 | > 100 | 15.5 | > 100 | 30.4 | > 31.6 | 12.6 | > 31.6 | –
CCCCCCCCCCCC[N+]12CC[N+](C)(CC1)CC2 | 29.9 | 60.9 | 46 | > 100 | > 100 | 47.7 | > 100 | 53.2 | 53.3 | –
COc1ccc(C2=NNC(=O)c3ccccc3N2c2nc(-c3cccs3)nc3cc(OC)c(OC)cc23)cc1 | 33.3 | > 100 | 88 | 17.3 | 6.92 | 7.97 | > 100 | > 100 | – | 13.5
O=c1[nH]c2ccc(CC(=S)N3CCOCC3)cc2o1 | > 100 | > 100 | – | – | > 100 | – | > 100 | – | > 100 | > 100
CCOC(=O)N1CCC2(CC1)C[C@@](C(C)=O)(c1ccccc1)C(C)O2 (stereo not given in full) | > 100 | > 100 | > 100 | > 100 | > 100 | > 100 | > 100 | > 100 | – | > 100
COc1cccc(CCNc2c(C#N)c3n(c4ccccc4[n+]3C)c3ncccc23)c1 | > 21.3 | > 56.5 | 10.3 | 28.8 | 32.6 | > 58.9 | – | > 100 | – | 6.89
CC(=O)OCC1OC(n2c(=S)n(-c3ccccc3)c(=O)c3cc(Br)ccc32)C(OC(C)=O)C1OC(C)=O (stereo not given) | > 100 | > 100 | > 100 | > 100 | > 100 | > 100 | > 100 | – | – | –
COc1cc(S(=O)(=O)Nc2ccc(-c3csc(N4C(=O)CSC4c4ccccc4O)n3)cc2)ccc1Cl (stereo not given) | – | > 100 | 55.6 | > 100 | > 100 | 82.1 | > 100 | > 100 | > 100 | –
CC1CN(CCO)CCN1c1ccccc1 (stereo not given) | > 100 | > 100 | > 100 | > 100 | > 100 | > 100 | > 100 | > 100 | – | > 100
CC(C)(C)OC(=O)N1N=CCC1c1ccccc1 (stereo not given) | – | > 100 | > 100 | > 100 | – | > 100 | > 100 | > 100 | > 100 | –
CN(C)S(=O)(=O)c1nc(Cl)c2[nH]cnc2n1 | > 100 | > 100 | > 100 | > 100 | > 100 | – | > 100 | > 100 | > 100 | > 100
Cc1ccc(Nc2nc(-c3ccc(-c4ccc([N+](=O)[O-])cc4)o3)cs2)cc1 | > 100 | 94.5 | – | – | > 100 | > 100 | > 100 | > 100 | – | –
Cc1nc2ccc(NC3OCC(O)C(O)C3O)cc2c(=O)n1-c1ccccc1 (stereo not given) | > 100 | > 100 | > 100 | > 100 | > 100 | – | > 100 | > 100 | – | > 100
O=c1[nH]cnc2c1cnn2Cc1cnnn1COCCO | > 100 | > 100 | > 100 | > 100 | > 100 | > 100 | > 100 | > 100 | – | > 100
CC(=O)Nc1ccc(/C=c2\sc3nnc(-c4cccnc4)n3c2=O)cc1 | 33.5 | 31.4 | 33.2 | 37.8 | 37.3 | 44.2 | 34.2 | 70.1 | 53.9 | –
O=C(NC1=C(Cl)C(=O)c2ccccc2C1=O)C(=O)C(C(=O)c1ccc2ccccc2c1)C1OC(=O)c2ccccc21 (stereo not given) | 18.5 | 13.4 | 12.1 | 1.96 | 4.16 | 10.3 | 28.2 | 25.6 | 26.9 | –
NC(=S)N1N=C2c3ccccc3CCC[C@H]2[C@@H]1c1ccccc1 | 17.7 | 27.8 | 1.42 | 8.93 | 21.5 | – | 15.3 | > 37.9 | 24.3 | 17.1
CC(C)C(C(=O)N(C)C(Cc1ccccc1)C(=O)N(C)C(C(=O)N(C)C(C(=O)N1CCCC1C(=O)OC(C)(C)C)C(C)C)C(C)C)N(C)C (stereo not given) (ξNMe2Val-[NMeF][NMeV][NMeV]P-OtBu; configuration not given here) | – | > 100 | 46.5 | 38.8 | – | – | > 100 | > 100 | > 100 | –
COc1ccc(NC(=O)C(=O)Cc2ccc([N+](=O)[O-])c([N+](=O)[O-])c2CC(=O)C(=O)Nc2ccc(OC)cc2OC)c(OC)c1 | > 100 | > 100 | > 100 | – | > 100 | > 100 | > 100 | > 100 | > 100 | –
CN(C)CCC[N+]1=Nc2cccc3cccc(c23)N1 | > 100 | > 100 | 91.2 | 34.2 | > 100 | > 100 | 44.9 | > 100 | 80.8 | –
Cc1nn2c(c1C#N)NNc1c-2sc(=N)nnc1=O | > 100 | > 100 | > 100 | > 100 | > 100 | > 100 | > 100 | > 100 | > 100 | –
Cc1ccc(NC(=O)C2C3CCC(O3)C2C(=O)O)cc1 (stereo not given) | > 100 | > 100 | > 100 | > 100 | > 100 | > 92.9 | > 45.1 | > 77.6 | > 75.5 | –
N#COc1ccc(Oc2ccc(OC#N)cc2)cc1 | > 100 | > 100 | > 100 | > 100 | > 100 | > 100 | – | > 100 | 50.4 | –

Compound | TGI [1] [µM] | TGI [2] [µM] | TGI [3] [µM] | TGI [4] [µM] | TGI [5] [µM] | TGI [6] [µM] | TGI [7] [µM] | TGI [8] [µM] | TGI [9] [µM] | TGI [10] [µM]
CNC(=O)CNC(=O)N(C[C@@H]1CCCN1C(=O)[C@H](CC(C)C)NC(=O)OC(C)(C)C)C(C)C | > 100 | > 100 | > 100 | > 100 | > 100 | – | > 100 | > 100 | > 100 | > 100
CCCCCCCCCCCCOC1C(COCCN2CCCCC2)OC2OC(C)(C)OC21 (stereo not given) | 3.48 | 6.06 | 2.97 | 2.93 | 3.28 | – | 3.23 | – | 2.99 | 3.43
C=CCOC(=O)Cn1ccc(=O)[nH]c1=O | > 100 | > 100 | – | > 100 | > 100 | – | > 100 | > 100 | > 100 | > 100
COc1ccc(/C=C/C(=O)c2ccc(Br)cc2)cc1 | > 100 | > 100 | – | > 100 | > 100 | – | > 100 | > 100 | > 100 | > 100
CCSc1nc(N/N=C/c2cccs2)c2cnn(CO)c2n1 | 30.1 | 17.3 | 15.5 | 12.9 | 26.9 | > 100 | 24.2 | 52.7 | – | 54.8
Cc1ccc(S(=O)(=O)N(CCNC(=O)c2cccc(O)c2O)c2cc3c4c(c2)Oc2cccc5c2C4(C)c2c(cccc2O3)O5)cc1 | > 100 | > 100 | – | > 100 | > 100 | – | > 100 | > 100 | – | > 100
CC#COS(=O)(=O)c1ccc(C)cc1 | > 100 | > 100 | > 100 | > 100 | > 100 | – | > 100 | > 100 | > 100 | –
COc1ccc(C2=Nc3ccccc3N=C(SC)C2)cc1 | > 100 | > 100 | 63.2 | > 100 | > 100 | 61.9 | 41 | 53.2 | 42 | –
CC12CCc3ccccc3C1=NNC(=O)C2 (stereo not given) | > 100 | > 100 | > 100 | > 100 | > 100 | > 100 | > 100 | > 100 | > 100 | –
COc1ccc(Nc2nc(N)c(C(=O)c3ccc(Cl)cc3)s2)cc1 | 4.58 | 6.78 | < 0.01 | 2.19 | – | > 93.3 | > 100 | > 100 | – | 6.13
CCCCCCCCCCCCCS(=O)(=O)NCC(N)=O | > 100 | > 100 | > 100 | > 100 | > 100 | > 100 | > 100 | – | > 100 | –
O=C1[C@@H]2C(c3ccccc3[N+](=O)[O-])=NO[C@@H]2C(=O)N1c1ccc(Cc2ccc(N3C(=O)[C@H]4C(c5ccccc5[N+](=O)[O-])=NO[C@H]4C3=O)cc2)cc1 | > 100 | > 100 | > 100 | > 100 | > 100 | > 100 | > 100 | > 100 | > 100 | –
COC(=O)C(=O)C(C(=O)OC)C(=O)C(=O)Nc1c(Cl)cc([N+](=O)[O-])cc1Cl (stereo not given) | > 100 | > 100 | > 100 | > 100 | > 100 | > 100 | > 100 | > 100 | – | > 100
COc1ccc(-c2cc(-c3ccc(Nc4ccnc5cc(Cl)ccc45)cc3)[nH]c(=O)c2C#N)cc1 | > 100 | > 100 | > 100 | – | > 100 | > 100 | > 100 | > 100 | – | > 100
Cc1ccc(S(=O)(=O)NNS(C)(=O)=O)cc1 | > 100 | > 100 | > 100 | > 100 | > 100 | – | > 100 | > 100 | > 100 | –
CCCCOC(=O)NC(=O)c1cn(CCCOC(=O)CCCCCCCCC(=O)OCCCn2cc(C(=O)NC(=O)OCCCC)c(=O)n(C)c2=O)c(=O)n(C)c1=O | > 100 | > 100 | > 100 | > 100 | > 100 | > 100 | > 100 | > 100 | > 100 | –
COc1ccc([C@H]2CC3C(=O)N(c4ccc(OC)cc4)C(=O)C3c3[nH]c4ccccc4c32)cc1 (stereo not given in full) | > 100 | > 100 | > 100 | > 100 | > 100 | 78.4 | > 100 | > 100 | > 100 | –
Brc1ccc(-c2cc3c(cc2C2SCCS2)OCO3)cc1 | > 100 | > 100 | 40.9 | > 100 | > 100 | – | > 100 | > 100 | > 100 | –
CCN(CC)c1c(C)nnn1C1OC(COC(C)=O)C(OC(C)=O)C(OC(C)=O)C1OC(C)=O (stereo not given) | > 100 | > 100 | > 100 | > 100 | > 100 | > 100 | 31.3 | > 100 | > 100 | –
O=C1CN(c2cccc(C(F)(F)F)c2)C(=O)CN1CCN1CC(=O)N(c2cccc(C(F)(F)F)c2)CC1=O | > 100 | – | > 100 | > 100 | – | – | > 100 | > 100 | > 100 | > 100
CSC(C1c2ccccc2N(C)c2[nH]c(=O)n(C)c(=O)c21)S(=O)(=O)c1ccc(C)cc1 (stereo not given) | > 100 | > 100 | 46.6 | > 100 | > 100 | > 100 | > 100 | > 100 | > 100 | –
COc1ccc2nc3ccccc3c(NCCCCN(CCCl)CCCl)c2c1 | 1.83 | 2.09 | – | 3.37 | 0.725 | – | 2.74 | – | – | 16.7
CCO/C(O)=c1/s/c(=C(\C#N)c2nc3ccccc3[nH]2)n(-c2ccccc2)c1=N | > 100 | > 100 | > 100 | > 100 | > 100 | > 100 | > 100 | > 100 | > 100 | –
